12 molecules from PMC9833666, “Designing and identifying β-hairpin peptide macrocycles with antibiotic potential” (Science Advances, 2023) can be followed below.

Bridge positions count the residues as written; N and C are the ends. Peptide text beside a SMILES is read from it. Bounds are passed on as bounds.

In assay [1] the test system is Acinetobacter baumannii AB5075. To be noted: AB5075. On the procedure: MICs were performed by a modifiedClinical and Laboratory Standards Institute) procedure. […] Separately, E. coli W3110 or A. baumannii AB5075 was grown overnight in 5 ml of standard MH at 37°C. Cells from these cultures were diluted to a concentration of 5 × 10^5 to 6 × 10^5 cells/ml in either standard MH, MHII, RPMI, or fetal bovine serum, and 90 μl was added to each well of the 96-well plate containing diluted peptide. Plates were wrapped twice in parafilm and incubated at 37°C for 18 to 24 hours. Wells were examined by eye against wells with no bacteria for signs of growth. MICs were reported as the minimum concentration with no observable growth. In cases where triplicate samples differed, the concentration supported by the median of the three replicates was reported. […]
For consistency, all SynCH peptides were resuspended at 10 mg/ml in water. Peptides were then visually inspected for any lack of solubility (Data File S1). […]
We had this library commercially synthesized and tested its ability to inhibit the growth of Acinetobacter baumannii AB5075, a clinically isolated Carbapenem Resistant Acinetobacter (CRA) pathogen. MICs were performed in MH as well as 100% FBS, which is likely more representative of the in vivo environment. […]

Assay [2] relates to Escherichia coli W3110. Format: cell-based. To be noted: for Ec W3110 MIC MH: E. coli W3110, MH medium; for Ec W3110 MIC RPMI: E. coli W3110, RPMI medium.

As for `CC(C)C[C@@H]1NC(=O)[C@H](CCCNC(=N)N)NC(=O)[C@H](C(C)C)NC(=O)[C@H](CCCNC(=N)N)NC(=O)[C@H](CC(C)C)NC(=O)[C@@H](N)CSSC[C@@H](C(=O)O)NC(=O)[C@H](C(C)C)NC(=O)[C@H](CCCNC(=N)N)NC(=O)[C@H](CC(C)C)NC(=O)[C@H](CO)NC(=O)[C@H](C(C)C)NC(=O)[C@H](CCCCN)NC(=O)[C@H](C(C)C)NC(=O)[C@H](CCCNC(=N)N)NC(=O)CNC(=O)[C@H](CCCNC(=N)N)NC(=O)[C@H](CCCNC(=N)N)NC(=O)[C@H](CC(N)=O)NC(=O)[C@H](CCCNC(=N)N)NC1=O` [SySA-5.1] (H-CLRVRLRNRRGRVKVSLRVC-OH; disulfide 1-20), in assay [1], the “AB5075 MIC FBS” value turned out to be 128 µg/mL and the “AB5075 MIC MH” value was 8 µg/mL.
Regarding `CC(C)C[C@@H]1NC(=O)[C@H](CCCNC(=N)N)NC(=O)[C@H](C(C)C)NC(=O)[C@H](CCCNC(=N)N)NC(=O)[C@H](CC(C)C)NC(=O)[C@@H](N)CSSC[C@@H](C(=O)O)NC(=O)[C@H](C(C)C)NC(=O)[C@H](CCCNC(=N)N)NC(=O)[C@H](CC(C)C)NC(=O)[C@H](CCCNC(=N)N)NC(=O)[C@H](C(C)C)NC(=O)[C@H](CCCCN)NC(=O)[C@H](C(C)C)NC(=O)[C@H](CCCNC(=N)N)NC(=O)[C@H](CCCNC(=N)N)NC(=O)[C@H](CCCNC(=N)N)NC(=O)[C@H](CCCNC(=N)N)NC(=O)[C@H](CC(N)=O)NC(=O)[C@H](CCCNC(=N)N)NC1=O` [SySA-5.2] (H-CLRVRLRNRRRRVKVRLRVC-OH; disulfide 1-20), in assay [1], the “AB5075 MIC FBS” value was > 128 µg/mL and the “AB5075 MIC MH” value amounted to 4 µg/mL.
On the same counts, the results for `CC(C)C[C@@H]1NC(=O)[C@H](CO)NC(=O)[C@H](C(C)C)NC(=O)[C@H](CCCCN)NC(=O)[C@H](C(C)C)NC(=O)[C@H](CCCNC(=N)N)NC(=O)CNC(=O)[C@H](CCCNC(=N)N)NC(=O)[C@H](CCCNC(=N)N)NC(=O)[C@H](CC(N)=O)NC(=O)[C@H](CC(N)=O)NC(=O)[C@H](CC(C)C)NC(=O)[C@H](CCCNC(=N)N)NC(=O)[C@H](C(C)C)NC(=O)[C@H](CCCNC(=N)N)NC(=O)[C@@H](N)CSSC[C@@H](C(=O)O)NC(=O)[C@H](CCC(N)=O)NC1=O` [SySA-5.5] (H-CRVRLNNRRGRVKVSLQC-OH; disulfide 1-18) are > 128 µg/mL and 8 µg/mL.
With `CC(C)C[C@@H]1NC(=O)[C@H](CO)NC(=O)[C@H](C(C)C)NC(=O)[C@H](CCCCN)NC(=O)[C@H](C(C)C)NC(=O)[C@H](CCCNC(=N)N)NC(=O)CNC(=O)[C@H](CCCNC(=N)N)NC(=O)[C@H](CCCNC(=N)N)NC(=O)[C@H](CC(N)=O)NC(=O)[C@H](CCCNC(=N)N)NC(=O)[C@H](CC(C)C)NC(=O)[C@H](CCCNC(=N)N)NC(=O)[C@H](C(C)C)NC(=O)[C@H](CCCNC(=N)N)NC(=O)[C@@H](N)CSSC[C@@H](C(=O)O)NC(=O)[C@H](CCCNC(=N)N)NC1=O` [SySA-5.6] (H-CRVRLRNRRGRVKVSLRC-OH; disulfide 1-18), in assay [1], the “AB5075 MIC FBS” value stood at 128 µg/mL and the “AB5075 MIC MH” value is 4 µg/mL.
Consider `CC(C)C[C@@H]1NC(=O)[C@H](CCCNC(=N)N)NC(=O)[C@H](C(C)C)NC(=O)[C@H](CCCCN)NC(=O)[C@H](C(C)C)NC(=O)[C@H](CCCNC(=N)N)NC(=O)[C@H](CCCNC(=N)N)NC(=O)[C@H](CCCNC(=N)N)NC(=O)[C@H](CCCNC(=N)N)NC(=O)[C@H](CC(N)=O)NC(=O)[C@H](CCCNC(=N)N)NC(=O)[C@H](CC(C)C)NC(=O)[C@H](CCCNC(=N)N)NC(=O)[C@H](C(C)C)NC(=O)[C@H](CCCNC(=N)N)NC(=O)[C@@H](N)CSSC[C@@H](C(=O)O)NC(=O)[C@H](CCCNC(=N)N)NC1=O` [SySA-5.7] (H-CRVRLRNRRRRVKVRLRC-OH; disulfide 1-18), for which, in assay [1], the “AB5075 MIC FBS” value was > 128 µg/mL and the “AB5075 MIC MH” value was found to be 8 µg/mL.
As for `CC(C)C[C@@H]1NC(=O)[C@H](CO)NC(=O)[C@H](C(C)C)NC(=O)[C@H](CCCCN)NC(=O)[C@H](CCCNC(=N)N)NC(=O)CNC(=O)[C@H](CCCNC(=N)N)NC(=O)[C@H](CCCNC(=N)N)NC(=O)[C@H](CC(N)=O)NC(=O)[C@H](CC(C)C)NC(=O)[C@H](CCCNC(=N)N)NC(=O)[C@H](C(C)C)NC(=O)[C@H](CCCNC(=N)N)NC(=O)[C@H](CC(C)C)NC(=O)[C@@H](N)CSSC[C@@H](C(=O)O)NC(=O)[C@H](C(C)C)NC(=O)[C@H](CCC(N)=O)NC1=O` [SySA-5.10] (H-CLRVRLNRRGRKVSLQVC-OH; disulfide 1-18), in assay [1], the “AB5075 MIC FBS” value was determined as 128 µg/mL and the “AB5075 MIC MH” value was found to be 4 µg/mL.
Regarding `CC(C)C[C@@H]1NC(=O)[C@H](CCCNC(=N)N)NC(=O)[C@H](C(C)C)NC(=O)[C@H](CCCCN)NC(=O)[C@H](CCCNC(=N)N)NC(=O)CNC(=O)[C@H](CCCNC(=N)N)NC(=O)[C@H](CCCNC(=N)N)NC(=O)[C@H](CCCNC(=N)N)NC(=O)[C@H](CC(C)C)NC(=O)[C@H](CCCNC(=N)N)NC(=O)[C@H](C(C)C)NC(=O)[C@H](CCCNC(=N)N)NC(=O)[C@H](CC(C)C)NC(=O)[C@@H](N)CSSC[C@@H](C(=O)O)NC(=O)[C@H](C(C)C)NC(=O)[C@H](CCC(N)=O)NC1=O` [SySA-5.11] (H-CLRVRLRRRGRKVRLQVC-OH; disulfide 1-18), in assay [1], the “AB5075 MIC FBS” value turned out to be 64 µg/mL and the “AB5075 MIC MH” value worked out at 4 µg/mL.
On to `CC(C)C[C@@H]1NC(=O)[C@H](CO)NC(=O)[C@H](C(C)C)NC(=O)[C@H](CCCCN)NC(=O)[C@H](CCCNC(=N)N)NC(=O)[C@H](CCCNC(=N)N)NC(=O)[C@H](CCCNC(=N)N)NC(=O)[C@H](CC(N)=O)NC(=O)[C@H](CC(C)C)NC(=O)[C@H](CCCNC(=N)N)NC(=O)[C@H](C(C)C)NC(=O)[C@H](CCCNC(=N)N)NC(=O)[C@H](CC(C)C)NC(=O)[C@@H](N)CSSC[C@@H](C(=O)O)NC(=O)[C@H](C(C)C)NC(=O)[C@H](CCC(N)=O)NC1=O` [SySA-5.18] (H-CLRVRLNRRRKVSLQVC-OH; disulfide 1-17), for which, in assay [1], the “AB5075 MIC FBS” value turned out to be 128 µg/mL and the “AB5075 MIC MH” value turned out to be 8 µg/mL.
On to `CC(C)C[C@@H]1NC(=O)[C@H](CCCNC(=N)N)NC(=O)[C@H](C(C)C)NC(=O)[C@H]([C@@H](C)O)NC(=O)[C@H](CC(C)C)NC(=O)[C@@H](N)CSSC[C@@H](C(=O)O)NC(=O)[C@H](C(C)C)NC(=O)[C@H](CCC(N)=O)NC(=O)[C@H](C(C)C)NC(=O)[C@H](CO)NC(=O)[C@H](C(C)C)NC(=O)[C@H](CCCCN)NC(=O)[C@H](C(C)C)NC(=O)CNC(=O)[C@H](CCCNC(=N)N)NC(=O)[C@H](CCCNC(=N)N)NC(=O)[C@H](CCCNC(=N)N)NC(=O)[C@H](CC(N)=O)NC(=O)[C@H](CC(N)=O)NC1=O` [SySA-81] (H-CLTVRLNNRRRGVKVSVQVC-OH; disulfide 1-20; N-terminus and C-terminus assumed), for which, in assay [2], the Ec W3110 MIC MH stood at 64 µg/mL, the Ec W3110 MIC RPMI came out at 32 µg/mL, the “W3110 MIC MH” value came out at 64 µg/mL and the “W3110 MIC RPMI” value is 32 µg/mL.
With `CC[C@H](C)[C@@H]1NC(=O)[C@H](CCCCN)NC(=O)[C@H](CC(C)C)NC(=O)CNC(=O)[C@H](CCCNC(=N)N)NC(=O)[C@H](CCCNC(=N)N)NC(=O)[C@H](CCCNC(=N)N)NC(=O)[C@H](CC(N)=O)NC(=O)[C@H](CC(N)=O)NC(=O)[C@H](CC(C)C)NC(=O)[C@H](CCCNC(=N)N)NC(=O)[C@H]([C@@H](C)CC)NC(=O)[C@H](CCCNC(=N)N)NC(=O)[C@H](C(C)C)NC(=O)[C@@H](N)CSSC[C@@H](C(=O)O)NC(=O)[C@H](C(C)C)NC(=O)[C@H](CCC(N)=O)NC(=O)[C@H](CC(C)C)NC(=O)[C@H](CO)NC1=O` [SySA-82] (H-CVRIRLNNRRRGLKISLQVC-OH; disulfide 1-20; N-terminus and C-terminus assumed), in assay [2], the Ec W3110 MIC MH came to 64 µg/mL, the Ec W3110 MIC RPMI is 8 µg/mL, the “W3110 MIC MH” value came out at 64 µg/mL and the “W3110 MIC RPMI” value worked out at 8 µg/mL.
Consider `CC[C@H](C)[C@@H]1NC(=O)[C@H](CCCCN)NC(=O)[C@H](CC(C)C)NC(=O)[C@H](CCCNC(=N)N)NC(=O)CNC(=O)CNC(=O)[C@H](CCCNC(=N)N)NC(=O)[C@H](CC(N)=O)NC(=O)[C@H](CC(N)=O)NC(=O)[C@H](C(C)C)NC(=O)[C@H](CCCNC(=N)N)NC(=O)[C@H](C(C)C)NC(=O)[C@H](CCCNC(=N)N)NC(=O)[C@H](C(C)C)NC(=O)[C@@H](N)CSSC[C@@H](C(=O)O)NC(=O)[C@H](C(C)C)NC(=O)[C@H](CCC(N)=O)NC(=O)[C@H](C(C)C)NC(=O)[C@H](CO)NC1=O` [SySA-83] (H-CVRVRVNNRGGRLKISVQVC-OH; disulfide 1-20; N-terminus and C-terminus assumed), for which, in assay [2], the Ec W3110 MIC MH turned out to be 128 µg/mL, the Ec W3110 MIC RPMI was 16 µg/mL, the “W3110 MIC MH” value came out at 128 µg/mL and the “W3110 MIC RPMI” value came to 16 µg/mL.
Turning to `CC[C@H](C)[C@@H]1NC(=O)[C@H](CCCCN)NC(=O)[C@H](CC(C)C)NC(=O)CNC(=O)[C@H](CCCNC(=N)N)NC(=O)[C@H](CCCNC(=N)N)NC(=O)[C@H](CCCNC(=N)N)NC(=O)[C@H](CC(N)=O)NC(=O)[C@H](CC(N)=O)NC(=O)[C@H](CC(C)C)NC(=O)[C@H](CCCNC(=N)N)NC(=O)[C@H](C(C)C)NC(=O)[C@H](CCCNC(=N)N)NC(=O)[C@H](C(C)C)NC(=O)[C@@H](N)CSSC[C@@H](C(=O)O)NC(=O)[C@H](C(C)C)NC(=O)[C@H](CCC(N)=O)NC(=O)[C@H](CC(C)C)NC(=O)[C@H]([C@@H](C)O)NC1=O` [SySA-88] (H-CVRVRLNNRRRGLKITLQVC-OH; disulfide 1-20; N-terminus and C-terminus assumed), in assay [2], the Ec W3110 MIC MH amounted to 32 µg/mL, the Ec W3110 MIC RPMI is 8 µg/mL, the “W3110 MIC MH” value turned out to be 32 µg/mL and the “W3110 MIC RPMI” value is 8 µg/mL.
